For 4 molecules, ring closure, yield of all isomers results are on record in patent publication EP2739628B1.

Where two headings read alike, the source gives them in different places.

For this series the following is noted: rcm bond.

For the setting “from C=CC[C@H](NC(=O)OC(C)(C)C)c1nc(-c2ccc(NC(=O)OC)cc2N[C@H](CC=C)C(=O)OC)cn1COCC[Si](C)(C)C, Grubbs II, DCE, 40.0 mM, 120.0 °C, 0.33 h”, `COC(=O)Nc1ccc2c(c1)N[C@@H](C(=O)OC)CC=CC[C@H](NC(=O)OC(C)(C)C)c1nc-2cn1COCC[Si](C)(C)C` yielded a ring closure, yield of all isomers of 23%. For the molecule `COC(=O)Nc1ccc2c(c1)NC(=O)C/C=C/C[C@H](NC(=O)OC(C)(C)C)c1cc-2ccn1`, the ring closure, yield of all isomers (from C=CCC(=O)Nc1cc(NC(=O)OC)ccc1-c1ccnc([C@H](CC=C)NC(=O)OC(C)(C)C)c1, Grubbs II, DCM, 3.99 mM, 45.0 °C, 19.0 h) worked out at 26%.

Turning to `CCOC(=O)C1C/C=C/C[C@H](NC(=O)OC(C)(C)C)c2cc(ccn2)-c2ccc(NC(=O)OC)cc2N1` (stereo partly shown), the ring closure, yield of all isomers (from C=CCC(Nc1cc(NC(=O)OC)ccc1-c1ccnc([C@H](CC=C)NC(=O)OC(C)(C)C)c1)C(=O)OCC, Grubbs II) came to 47%. Molecule `COC(=O)Nc1ccc2c(c1)NC(=O)[C@H](C)C=CC[C@H](NC(=O)OC(C)(C)C)c1nc-2cn1COCC[Si](C)(C)C` came in with a ring closure, yield of all isomers (from C=CC[C@H](NC(=O)OC(C)(C)C)c1nc(-c2ccc(NC(=O)OC)cc2NC(=O)[C@H](C)C=C)cn1COCC[Si](C)(C)C, Grubbs 2nd generation catalyst (with pTsOH monohydrate), dichloromethane, 9.73 mM, 40.0 °C, 21.5 h) of 41%.
